The record followed here is patent US10597735B2, “Antibacterial and plasmid elimination agents” (priority 2006, dated 2020).

Each structure is given as a SMILES string. ≈ marks a conversion by molar mass, not a printed value. Where a SMILES comes first, the peptide text is derived from it.

The subject of experiment [1] is C. crescentus. The format is cell-based, Caulobacter crescentus. The following applies: C. crescentus, 99.9% colony reduction; listed as cyclic XB. How it is done: Antibacterial activity assays: To measure the effects of peptides on bacterial growth, cultures of C. crescentus were diluted to OD600=0.001, peptide was added at various concentrations, the cultures were incubated at 30° C. for 14 h, and the MIC was determined as the lowest concentration of peptide that prevented growth. To determine the MBC, each culture was diluted 1:100 in PYE and 10 μl of the diluted culture was spread onto PYE agar plates, incubated at 30° C. overnight, and the number of colonies on each plate was counted. The MBC was assigned as the concentration of peptide that reduced the number of colonies by 99.9% compared to cultures with no inhibitor.

Experiment [2] addresses T1, ClpXP (Escherichia coli, UniProt P0A6G7+P0A6H1). Kind of experiment: biochemical. The format is biochemical, E. coli. The settings on record: SspB present. The method, then: In vitro proteolysis assays: Proteolysis of GFP-tag was performed using a continuous fluorescence assay essentially as previously described (Levchenko et al. 2000, Science 289: 2354-2356). Briefly, loss of GFP fluorescence was monitored at 507 nm after excitation at 395 nm at 30° C. using a Hitachi F-2000 Fluorescence Spectrophotometer in buffer R (25 mM HEPES-KOH (pH 7.6), 5 mM MgCl2, 50 mM KCl, 0.032% NP-40, 10% glycerol, and an ATP regeneration system containing 4 mM ATP (pH 7), 16 mM creatine phosphate and 0.32 mg/ml creatine kinase). Typically, reactions contained […], 0.3 μM ClpP14, and equimolar concentrations (0.2 μM-2.0 μM) GFP-tag and SspB. Degradation of GFP-tag protein was confirmed by SDS-PAGE assays. To examine inhibition of GFP-tag proteolysis, peptides were incubated with ClpXP in reaction buffer for 5 min prior to the addition of GFP-tag. Plots of fluorescence versus time were fit with a single exponential function to determine the initial rate of proteolysis. Kinetic parameters were estimated using Eadie-Hofstee plots.
Proteolysis of GFP-tag in the presence of ClpXP and SspB was monitored by loss of GFP fluorescence in a continuous fluorometric assay. In the absence of cyclic peptide, GFP-tag was degraded with kinetic parameters kcat=[…], KM=0.74±0.04 μM. […] Likewise, no degradation was observed when ClpX or ClpP were omitted from the reaction.

Experiment [3] deals with T1, ClpXP. Kind of experiment: ClpXP degradation of GFP-tag in the presence of SspB, continuous fluorimetric assay (Examples 1-2). It counts as biochemical, E. coli. The following applies: SspB present. The method, then: (§1) ClpXP Proteolysis: PD buffer contained 25 mM HEPES-KOH (pH 7.6), 5 mM KCl, 5 mM MgCl2, 0.032% NP-40, 5 mM ATP, and 10% glycerol. The ATP regenerating system consisted of 8 mM creatine phosphate and 0.16 mg/ml creatine kinase. Inhibition experiments were performed using a Hitachi F-2000 Fluorescence Spectrophotometer. The rate of GFP-ssrA degradation was monitored at 30° C. for 5 minutes by the loss of fluorescence (excitation 488 nm; emission 507 nm). Competition experiments with increasing concentrations of peptide were performed using GFP-ssrA (0.2 μM), ClpX6 (0.3 ArM), ClpP14 (0.8 μM), and SspB2 (0.3 μM) in PD buffer plus 200 mM KCl and ATP regenerating system. Curve fitting for the competitive inhibition assays were performed using the Scientist program (MicroMath Scientific Software, Inc.).
Characterization of ClpXP inhibitors in vitro: Two of the selected cyclic peptides were synthesized in vitro to examine their effects on enzymatic assays. Peptides with the sequence SGWRVQGPL (SEQ ID NO: 1) and SGSKGVLPL (SEQ ID NO: 2) were chemically synthesized in the linear form, circularized, and purified by HPLC. The effects of these peptides on the activity of purified ClpXP were determined in vitro using a continuous fluorimetric assay. GFP-tag, SspB, ClpX and ClpP were each purified from over-expressing strains of E. coli, and degradation of GFP-tag was monitored by loss of fluorescence. In reactions containing all components, GFP-tag was degraded with kinetic parameters kcat=1.79±0.08 min−1, KM=0.74±0.04, similar to the previously published values of 1.44 min^−1 and 0.96 μM. […] For both cyclic peptides, inhibition of ClpXP was reversible, as no inhibition was observed when ClpXP was incubated with peptide at concentrations above the Kr, and dialyzed to remove unbound peptide before addition of enzyme to the reaction. The linear versions of SGSKGVLPL (SEQ ID NO: 2) and SGWRVQGPL (SEQ ID NO: 1) had Kb, values >1 mM (Table 4), so the cyclic architecture is likely to be important for inhibition.

Experiment [4] has as its target T1, ClpXP. Kind of experiment: ClpXP degradation of GFP-tag in the absence of SspB (Examples 1-2). The following applies: no SspB. It counts as biochemical, E. coli. The method, then:
as §1
A priori, there are several steps in the degradation pathway that could be inhibited by the selected cyclic peptides: binding of the substrate-SspB complex to ClpXP, ATPase activity of ClpX, and hydrolysis of the peptide bond by ClpP. Molecules that block the binding of substrate to SspB should not be inhibitors of proteolysis by ClpXP, because ClpXP will degrade tmRNA-tagged substrates in the absence of SspB. To determine if the inhibitors act through SspB, the kinetic assays were repeated in the absence of this proteolytic adaptor.

For experiment [5], the target named is T1, ClpXP. Kind of experiment: Proteolysis of λO protein by ClpXP, SDS-PAGE (Example 3). It counts as biochemical, E. coli.
Protocol: Proteolysis of λO protein was assayed by incubating 1 μM λO with 0.1 μM ClpX6, 0.3 μM ClpP14 in buffer R at 30° C. At various times the reaction was sampled, the reaction was terminated by boiling in SDS-PAGE loading buffer, and analyzed using SDS-polyacrylamide gels stained with Coomassie blue. The intensity of the band corresponding to intact λO protein was measured using ImageQuant software (Molecular Dynamics), and plots of the intensity versus time were fit with single exponential functions to determine the half-life of λO protein.
To determine if IXP1 inhibits proteolysis of ClpXP substrates recognized by an epitope distinct from the tmRNA tag, λO protein was used as an assay substrate. […] Degradation of λO was assayed in the presence and absence of IXP1 by following the loss of intact λO protein on SDS-polyacrylamide gels (FIG. 7).

T1 sequence (P0A6G7 15-207): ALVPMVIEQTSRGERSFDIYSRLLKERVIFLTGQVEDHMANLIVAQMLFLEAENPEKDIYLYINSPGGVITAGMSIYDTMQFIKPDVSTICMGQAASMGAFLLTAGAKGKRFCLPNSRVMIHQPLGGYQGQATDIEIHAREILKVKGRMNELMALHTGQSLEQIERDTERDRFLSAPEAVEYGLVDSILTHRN
T1 sequence (P0A6H1 whole entry): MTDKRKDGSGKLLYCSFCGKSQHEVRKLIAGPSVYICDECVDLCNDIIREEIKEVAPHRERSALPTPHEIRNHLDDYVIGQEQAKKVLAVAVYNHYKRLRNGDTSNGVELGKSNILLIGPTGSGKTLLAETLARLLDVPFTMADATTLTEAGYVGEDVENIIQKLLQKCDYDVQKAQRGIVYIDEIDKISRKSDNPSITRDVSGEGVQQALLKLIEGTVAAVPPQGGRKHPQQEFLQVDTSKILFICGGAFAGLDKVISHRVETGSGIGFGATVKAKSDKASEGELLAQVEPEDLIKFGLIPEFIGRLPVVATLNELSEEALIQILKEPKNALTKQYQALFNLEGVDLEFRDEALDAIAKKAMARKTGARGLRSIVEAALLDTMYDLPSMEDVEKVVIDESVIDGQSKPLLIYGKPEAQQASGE

One may read the MBC as the smallest concentration meeting the test's criterion for killing. In the case of `CC(C)C[C@@H]1NC(=O)[C@H](C)NC(=O)[C@@H]2CCCN2C(=O)[C@H](CCCNC(=N)N)NC(=O)CNC(=O)CNC(=O)[C@H](CCCNC(=N)N)NC(=O)[C@H](CS)NC(=O)[C@H](CCCCN)NC(=O)[C@H](C(C)C)NC(=O)[C@H](C(C)C)NC(=O)[C@H](CCCNC(=N)N)NC1=O` [cycXB, CRGGRPALRVVK] (HELM PEPTIDE1{A.L.R.V.V.K.C.R.G.G.R.P}$PEPTIDE1,PEPTIDE1,1:R1-12:R2$$$V2.0), the minimal bactericidal concentration (MBC) in experiment [1] is 40 ± 6 µM (≈ 51.7 µg/mL). Further, the “KI fold lower than the linear XB peptide” value in experiment [2] is reported as 7 fold. In addition, in experiment [3], the “KI fold lower than the linear XB peptide” value is 7 fold and the “KI fold lower than the selected cyclic peptide inhibitors” value is 2-3 fold. The “inhibition of GFP-tag degradation by ClpXP in the absence of SspB” value in experiment [4] was “inhibited”. The “inhibition of λO degradation by ClpXP” value in experiment [5] is recorded as “did not inhibit”.
